Assay results published in patent US10676744B2, “Modulation of adipose tissue macrophage phenotype by use of MicroRNA-30” (University of South Carolina, priority 2017, dated 2020).

How the values were obtained:
Format in all cases: cell-based, mice
[1] = test system: CD11c; assay: In vitro LNA transfection assay in BMDM: CD11c surface expression by flow cytometry; conditions: DAPT (5 uM) added to culture media of transfected BMDM
Description: (§1) FIG. 3A schematically illustrates an in vitro experimental timeline during which differentiated bone marrow-derived microphages (BMDM) were incubated in conditioned medium from 3T3-L1 adipocytes (CM-3T3-L1A) prior to transfection with microRNA inhibitor locked nucleic acids (LNA) and subsequent culture. Cells and supernatants were harvested at 48 h.
FIG. 3F presents flow cytometry histograms of CD11c expression in the transfected BMDM. For FIG. 3B-FIG. 3F, values are presented as mean±SEM and are from a single experiment representative of 2-3 independent experiments.
FIG. 3G presents the percentage increase in CD11c+ macrophages during the in vitro experiments.
Freshly isolated SVF cells or cultured BMDM were washed in FACS buffer then incubated on ice with FcR-Blocker for 10 m followed by appropriate fluorochrome-conjugated antibodies or isotype controls (BioLegend, anti-CD11b-AlexaFluor488 clone: M1/70, anti-F4/80-PE clone: BM8, anti-DLL4-APC clone: HMD4-1, anti-CD45-PECy7 clone: 30-F11, anti-CD11c-APC clone: N418) for 50 m. Stained cells were washed 3× in FACS buffer then analyzed on a Beckman Coulter FC500 or BD FACSCelesta flow cytometer. Plots were analyzed with Beckman Coulter CXP Software or FlowJo v10.
Bone marrow derived macrophages (BMDM) were differentiated from bone marrow cells (BMC) by flushing the tibia and femur of 6-8 week old female C57Bl/6J mice with PBS. […]

[2] = test system: miRs-30a-5p, -30c-5p, and -30e-5p; assay: In vitro LNA transfection assay in conditioned BMDM: miR-30 expression; conditions: BMDM in CM-3T3-L1A, LNA-transfected; relative to Mock and control LNA (Ctr LNA)
Description: ATMs were lysed in Qiazol and total RNA was purified using Qiagen miRNeasy Microkit. RNA concentration and purity were measured using a NanoDrop 2000 spectrophotometer. 400 ng total RNA was reverse transcribed to cDNA using Qiagen miScript II RT kit with HiFlex buffer. To validate miRNA expression by qRT-PCR, miScript SYBR Green PCR kit and miScript miRNA Primer Assays were used (Qiagen).
(§2) Bone marrow derived macrophages (BMDM) were differentiated from bone marrow cells (BMC) by flushing the tibia and femur of 6-8 week old female C57Bl/6J mice with PBS. BMCs were filtered through a 70 μm nylon mesh, RBC-lysed, and washed, then cultured in complete DMEM/F12 supplemented with 10% FBS, 1% penicillin/streptomycin, 2 mM L-glutamine, and 1 U/mL M-CSF (BioLegend, 576406) for 7-10 days. 3T3-L1 adipocyte-conditioned media (CM-3T3-L1A) was generated by differentiating 3T3-L1 preadipocytes into adipocytes according to the Zen-Bio 3T3-L1 Adipocyte Care Manual (ZBM0009.03). Preadipocyte medium, differentiation medium, and adipocyte maintenance medium were also used (Zen-Bio, PM-1-L1, DM-2-L1, AM-1-L1). Conditioned medium was collected between days 7 and 14 post-differentiation, 0.22 μm filtered, aliquoted, and stored at −80° C. until use. For transfection assays, mature BMDM were plated in poly-D-lysine-coated 6-well plates at a density of 5×10^5 cells in 2 ml CM-3T3-L1A containing 10% FBS without antibiotics. BMDM were incubated 24 h (37° C., 5% CO2, 95% humidity) before transfection. Transfection complexes were prepared by diluting Lipofectamine3000 and LNA in Opti-MEM to final concentrations of 2% (v/v) and 0.32 μM respectively. Mixtures were incubated 15-20 m at RT to allow complexes to form. Meanwhile, conditioned BMDM were washed 3× in pre-warmed Dulbecco's PBS (DPBS), then media replaced with 2 mL Opti-MEM. 5004 transfection complexes were added drop-wise to each well. […]

[3] = test system: DLL4; assay: In vitro LNA transfection assay in BMDM: DLL4 in culture supernatants by ELISA; conditions: LNA-transfected BMDM; compared to Mock and Ctr LNA; harvested at 48 h
Description: as §1
FIG. 3B presents the amounts of DLL4 detected in culture supernatants by ELISA during the in vitro experiments.
as §2, with “form.” for “form. Meanwhile, conditioned BMDM were washed 3× in pre-warmed Dulbecco's PBS (DPBS), then media replaced with 2 mL Opti-MEM. 5004 transfection complexes were added drop-wise to each well.”
Culture supernatants were aspirated and centrifuged 5000 RPM, 5 m, 4° C. to rid of debris then aliquoted and stored −80° C. before assaying. […] Assays were performed according to manufacturer protocols and plates were read at 450 nm. Concentrations were calculated using standard curves.

[4] = test system: Notch1 intracellular domain (N1ICD); assay: In vitro LNA transfection assay in BMDM: Western blot of cleaved/activated Notch1; conditions: LNA-transfected BMDM, compared to Mock and Ctr LNA
Description: as §1
FIG. 3C presents Western blot results of cleaved/activated Notch1 (N1ICD) during the in vitro experiments. Fold induction relative to Mock is represented below each lane.
as §2

Compound | induction of CD11c in miR-30 inhibitor-transfected cells [1] | expression of miRs-30a-5p, -30c-5p, and -30e-5p [2] | DLL4 expression (culture supernatants, ELISA) [3] | activated Notch1 intracellular domain (N1ICD) expression [4]
C[C@H](NC(=O)Cc1cc(F)cc(F)c1)C(=O)N[C@H](C(=O)OC(C)(C)C)c1ccccc1 [DAPT] | reduced induction | – | – | –
Anti-30a: miRNA inhibitor locked nucleic acid (MirCURY LNA, Exiqon) targeting miR-30a-5p; SEQ ID NO: 2 TTCCAGTCGAGGATGTTTAC (LNA-modified miRCURY inhibitor, LNA positions and linkages not given here) | – | decreased expression | increased | increased
Anti-30c: miRNA inhibitor locked nucleic acid (MirCURY LNA, Exiqon) targeting miR-30c-5p; SEQ ID NO: 3 CTGAGAGTGTAGGATGTT (LNA-modified miRCURY inhibitor, LNA positions and linkages not given here) | – | decreased expression | increased | increased
Anti-30e: miRNA inhibitor locked nucleic acid (MirCURY LNA, Exiqon) targeting miR-30e-5p; SEQ ID NO: 4 TCCAGTCAAGGATGTTTAC (LNA-modified miRCURY inhibitor, LNA positions and linkages not given here) | – | decreased expression | increased | increased
